From patent US5527703A (Merck & Co., Inc., priority 1994, dated 1996)
Entries after “also recorded” stand apart in the source; their conditions may differ.

Tests used:
GluCl α&β [1] = target: T1, GluCl α&β (Caenorhabditis elegans, UniProt G5EBR3+Q17328); experiment: Antagonist block of ligand-activated current in oocytes injected with GluClα and GluClβ RNA; assay type: cell-based, C. elegans; conditions: for inhibition at 100 µM: read-out: % Block; for % Block: blocker 100 μM
T1 construct: the full-length open reading frame of the GluCl cDNA encoding the GluClα (52,550 kDa) and GluClβ (49,900kDa) subunits; expressed in transfected cells; host or cells: Xenopus laevis oocytes injected with in vitro RNA
T1 sequence (G5EBR3 21-461): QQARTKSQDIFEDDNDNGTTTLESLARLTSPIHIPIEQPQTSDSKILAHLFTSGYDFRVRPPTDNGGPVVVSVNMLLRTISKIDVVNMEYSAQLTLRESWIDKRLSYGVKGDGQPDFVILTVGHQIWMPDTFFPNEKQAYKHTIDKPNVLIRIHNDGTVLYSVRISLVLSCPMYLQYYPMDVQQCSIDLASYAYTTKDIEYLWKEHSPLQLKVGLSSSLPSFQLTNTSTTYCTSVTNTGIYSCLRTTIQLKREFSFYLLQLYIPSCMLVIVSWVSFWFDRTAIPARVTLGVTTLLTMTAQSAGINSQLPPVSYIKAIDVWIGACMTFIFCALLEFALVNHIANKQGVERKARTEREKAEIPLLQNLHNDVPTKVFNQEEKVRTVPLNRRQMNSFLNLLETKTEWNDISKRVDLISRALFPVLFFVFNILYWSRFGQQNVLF
T1 sequence (Q17328 23-434): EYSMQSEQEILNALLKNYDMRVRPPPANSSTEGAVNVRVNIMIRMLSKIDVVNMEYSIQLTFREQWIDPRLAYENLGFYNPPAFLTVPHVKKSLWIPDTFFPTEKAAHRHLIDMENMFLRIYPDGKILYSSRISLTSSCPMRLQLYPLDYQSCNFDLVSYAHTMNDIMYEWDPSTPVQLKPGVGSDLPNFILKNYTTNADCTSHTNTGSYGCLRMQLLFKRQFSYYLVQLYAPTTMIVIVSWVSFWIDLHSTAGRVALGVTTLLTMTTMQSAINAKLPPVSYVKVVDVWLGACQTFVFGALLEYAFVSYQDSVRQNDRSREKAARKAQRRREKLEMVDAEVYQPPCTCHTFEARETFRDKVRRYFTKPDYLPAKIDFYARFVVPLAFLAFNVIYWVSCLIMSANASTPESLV
Description: (§1) Xenopus laevis oocytes were prepared and injected using standard methods previously described and known in the art [Arena, J. P., Liu. K. K., Paress, P. S. & Cully. D. F. Mol. Pharmacol. 40, 368-374 (1991 ); Arena, J. P., Liu, K. K., Paress, P. S., Schaeffer, J. M. & Cully, D. F. Mol. Brain Res. 15, 339-348 (1992)]. Adult female Xenopus laevis were anesthetized with 0.17% tricaine methanesulfonate and the ovaries were surgically removed and placed in a dish consisting of (mM): NaCl 1 82.5, KCl 2. MgCl2 1, CaCl2 1.8, HEPES 5 adjusted to pH 7.5 with NaOH (OR-2). Ovarian lobes were broken open, rinsed several times, and gently shaken in OR-2 containing 0.2% collagenase (Sigma, Type 1A) for 2-5 hours. When approximately 50% of the follicular layers were removed, Stage V and VI oocytes were selected and placed in media consisting of (mM): NaCl 86, KCl 2, MgCl2 1, CaCl2 1.8, HEPES 5, Na pyruvate 2.5, theophylline 0.5, gentamicin 0.1 adjusted to pH 7.5 with NaOH (ND-96) for 24-48 hours before injection. Oocytes were injected with 50-70 nl of poly(A^+) RNA (1 mg/ml) or 50 nl of GluClα (0.1-100 ng) and/or GluClβ (0.1-100 ng). Control oocytes were injected with 50 nl of water. Oocytes were incubated for 2-10 days in ND-96 before recording. Incubations and collagenase digestion were carried out at 18° C.
(§2) Recordings were made at room temperature 2-10 days after injection. Unless otherwise indicated recordings were made in standard frog saline consisting of (mM): NaCl 115, KCl 2, MgCl2 1, CaCl2 1.8, HEPES 10 adjusted to pH 7.5 with NaOH. Oocytes were voltage-clamped using a standard two microelectrode amplifier (Dagan 8500 or TEV-200, Minneapolis,Minn.). Pipettes were filled with 3M KCl and had resistances between 0.5-3.0 M.OMEGA.. A plexiglass recording chamber (volume 200 μl) was constantly perfused at a rate of 10 ml/min. The recording chamber was connected to ground with a Ag/AgCl electrode directly, or through a 3M KCl agar bridge when extracellular chloride was varied. For low chloride solutions NaCl was replaced with equimolar concentrations of sodium isethionic acid. For low sodium solutions NaCl was replaced with equimolar KCl or choline Cl. Data were acquired and analyzed using PCLAMP with a TL-1 interface (Axon Instruments, Foster City, Calif.). Membrane current at a holding potential of -80 mV was recorded. The amplitude of drug-sensitive current was determined by subtracting the holding current at -80 mV from the peak current obtained in the presence of drug. Data were filtered at 30 Hz and sampled at 16.6 Hz. Current/voltage relationships (I/V) and reversal potentials (Erev) were determined using a 1-3 sec voltage ramp over the voltage range of -110 to +80 mV. For the ramps, data were filtered at 0.3-3 kHz and sampled at 160 Hz. Current in drug free solution was subtracted from current in the presence of drug to obtain drug-sensitive current/voltage relationships.
Oocytes were injected simultaneously with GluClα and GluClβ RNA
(25 pg each). n=at least four for each group. a- Data are expressed as %
acid. e- Block was considered zero if response in the presence of blocker
was ± 3% of control. f- (-)-Bicuculline methochloride g.

GluClα [2] = target: T2, GluClα (Caenorhabditis elegans, UniProt G5EBR3); experiment: Permeability (reversal potential) of GluClα channels in oocytes; assay type: cell-based, C. elegans; design: homomeric channel; voltage clamp reversal potentials; conditions: Erev in Na isothionate
T2 sequence (G5EBR3 21-461): T1 sequence (G5EBR3 21-461)
Description: Xenopus laevis oocytes were prepared and injected using standard methods previously described and known in the art [Arena, J. P., Liu. K. K., Paress, P. S. & Cully. D. F. Mol. Pharmacol. 40, 368-374 (1991 ); Arena, J. P., Liu, K. K., Paress, P. S., Schaeffer, J. M. & Cully, D. F. Mol. Brain Res. 15, 339-348 (1992)]. Adult female Xenopus laevis were anesthetized with 0.17% tricaine methanesulfonate and the ovaries were surgically removed and placed in a dish consisting of (mM): NaCl 1 82.5, KCl 2. MgCl2 1, CaCl2 1.8, HEPES 5 adjusted to pH 7.5 with NaOH (OR-2). Ovarian lobes were broken open, rinsed several times, and gently shaken in OR-2 containing 0.2% collagenase (Sigma, Type 1A) for 2-5 hours. […]
Recordings were made at room temperature 2-10 days after injection. […] Data were acquired and analyzed using PCLAMP with a TL-1 interface (Axon Instruments, Foster City, Calif.). Membrane current at a holding potential of -80 mV was recorded. The amplitude of drug-sensitive current was determined by subtracting the holding current at -80 mV from the peak current obtained in the presence of drug. […] Current/voltage relationships (I/V) and reversal potentials (Erev) were determined using a 1-3 sec voltage ramp over the voltage range of -110 to +80 mV. […]

GluClα [3] = target: T2, GluClα; experiment: Activation of current in Xenopus oocytes expressing homomeric GluClα (voltage clamp); assay type: cell-based, C. elegans; design: the full-length open reading frame of the GluCl cDNA encoding the GluClα (52,550 kDa) and GluClβ (49,900kDa) subunits; expressed in transfected cells; host or cells: Xenopus laevis oocytes injected with in vitro RNA
Description: as §1, §2
(§3) Electrophysiological properties were examined in oocytes injected with in vitro RNA from pGluClα and pGluClβ (FIG. 5).

GluClβ = target: T3, GluClβ (Caenorhabditis elegans, UniProt Q17328); experiment: Activation of current in Xenopus oocytes expressing homomeric GluClβ (voltage clamp); assay type: cell-based, C. elegans
T3 construct: the full-length open reading frame of the GluCl cDNA encoding the GluClα (52,550 kDa) and GluClβ (49,900kDa) subunits; expressed in transfected cells; host or cells: Xenopus laevis oocytes injected with in vitro RNA
T3 sequence (Q17328 23-434): T1 sequence (Q17328 23-434)
Description: as §1, §2, §3

GluCl α&β [4] = target: T1, GluCl α&β; experiment: Agonist activation of current in Xenopus oocytes injected with GluClα and GluClβ RNA (two-microelectrode voltage clamp); assay type: cell-based, C. elegans
Description: as §1, §2, §3
Several ligand-gated ion channel agonists and antagonists were tested on oocytes injected with GluCl α&β (Table 1). […] 255, 449-464 (1976); Arena, J. P., Liu, K. K., Paress, P. S., Schaeffer, J. M. & Cully, D. F. Mol. Brain Res. 15, 339-348 (1992); Lea, T. J. & Usherwood, P. N. R. Comp. Gen. Pharmacol. 4, 351-363 (1973)].

GluClα [5] = target: T2, GluClα; experiment: 3H-ivermectin equilibrium binding to GluClα RNA injected oocytes; design: the full-length open reading frame of the GluCl cDNA encoding the GluClα (52,550 kDa) and GluClβ (49,900kDa) subunits; expressed in transfected cells; host or cells: Xenopus laevis oocytes injected with in vitro RNA; species or system C. elegans; conditions: read-out: affinity of 3H-ivermectin binding; oocytes expressing GluClα
Description: (§4) Oocytes injected with GluClα and GluClβ in vitro RNA were used in ^3 H-ivermectin and ^3 H-glutamate binding assays. GluClα (1 ng) or GluClβ RNA (1 ng) were injected into oocytes individually, or coinjected (0.5 ng each) and 2 days later the oocytes were disrupted with a dounce homogenizer and yolk proteins removed using standard methods known in the art. Equilibrium ligand binding assays were performed using conventional procedures. […] Oocytes expressing GluCl α&β are used to measure the affinity of binding of othere compounds and their ability to displace ^3 H-ivermectin and ^3 H-glutamate binding.

GluCl α&β [6] = target: T1, GluCl α&β; experiment: 3H-ivermectin equilibrium binding to GluCl α&β RNA injected oocytes; design: species or system C. elegans; conditions: read-out: affinity of 3H-ivermectin binding; oocytes expressing GluCl α&β
Description: as §4

GluClα [7] = target: T2, GluClα; experiment: 3H-glutamate equilibrium binding to GluClα injected oocyte membranes; design: the full-length open reading frame of the GluCl cDNA encoding the GluClα (52,550 kDa) and GluClβ (49,900kDa) subunits; expressed in transfected cells; host or cells: Xenopus laevis oocytes injected with in vitro RNA; species or system C. elegans; conditions: membrane preparations from GluClα-injected oocytes
Description: as §4

arthropod H-receptors = conditions: cited from earlier work
[8] = system: glutamate- and avermectin-sensitive chloride channel (C. elegans poly(A)+ RNA); conditions: cited from earlier work

O=C(O)c1ccccc1Nc1cccc(C(F)(F)F)c1 [Flufenamic Acid]
block of glutamate- and IVMPO4-sensitive currents (GluCl α&β [1]): blocked; also recorded: low affinity block
inhibition at 200 µM (GluCl α&β [1]; blocker 200 μM, ligand IVMPO4 1 μM): 60 ± 4%

C[N+]1(C)CCc2cc3c(cc2C1C1OC(=O)c2c1ccc1c2OCO1)OCO3 (single isomer, unassigned; (-)) [Bicuculline, (-)-Bicuculline methochloride]
inhibition at 100 µM (GluCl α&β [1]): 0%

O=S(=O)(O)CCO [isothionate]
permeability ratio to chloride (GluClα [2]): 0.2

NCC(=O)O [Glycine]
sensitivity of GluClα homomeric channels (GluClα [3]): insensitive
sensitivity of GluClβ homomeric channels (GluClβ): insensitive
activation of current / sensitivity of coexpressed GluCl α&β (GluCl α&β [4]): insensitivity

CC[C@H](C)[C@H]1O[C@]2(CC[C@@H]1C)C[C@@H]1C[C@@H](C/C=C(\C)[C@@H](O[C@H]3C[C@H](OC)[C@@H](O[C@H]4C[C@H](OC)[C@@H](O)[C@H](C)O4)[C@H](C)O3)[C@@H](C)/C=C/C=C3\CO[C@@H]4[C@H](O)C(C)=C[C@@H](C(=O)O1)[C@]34O)O2 [^3 H-ivermectin, 22,23-dihydroavermectin B1a]
Kd (GluClα [5]): ~0.2 nM
Kd (GluCl α&β [6]): ~0.2 nM

N#Cc1cc2[nH]c(=O)c(=O)[nH]c2cc1[N+](=O)[O-] [CNQX, 6-cyano-7-nitroquino-xaline-2,3-dione]
inhibition at 10 µM (GluCl α&β [1]): 0%

^3 H-glutamate
Specific 3H-glutamate binding (GluClα [7]): observed

O=C1C[C@@H]2OCC=C3CN4CC[C@]56c7ccccc7N1[C@H]5[C@H]2[C@H]3C[C@H]46 [Strychnine]
inhibition at 100 µM (GluCl α&β [1]): 0%

NC(C(=O)O)c1cc(=O)[nH]o1 (stereo not shown) [Ibotenate]
effect on arthropod H-receptors (arthropod H-receptors): activated
activation of current / sensitivity of coexpressed GluCl α&β (GluCl α&β [4]): direct activation of current
Emax at 500 µM (GluCl α&β [4]; read-out: % of Glutamate 10 mM): 18 ± 2%
effect on glutamate- and avermectin-sensitive current [8]: activated

Picrotoxin
effect on arthropod H-receptors (arthropod H-receptors): blocked with low affinity
block of glutamate- and IVMPO4-sensitive currents (GluCl α&β [1]): blocked; also recorded: low affinity block
% Block (GluCl α&β [1]; ligand IVMPO4 1 μM): 61 ± 2%
% Block (GluCl α&β [1]; ligand glutamate 1 mM, zero if within ± 3% of control): 68 ± 4%
effect on glutamate- and avermectin-sensitive current [8]: blocked with low affinity

NCCCC(=O)O [GABA]
sensitivity of GluClα homomeric channels (GluClα [3]): insensitive
effect on arthropod H-receptors (arthropod H-receptors): not activated
sensitivity of GluClβ homomeric channels (GluClβ): insensitive
activation of current / sensitivity of coexpressed GluCl α&β (GluCl α&β [4]): insensitivity
